Data: article PMC6934184, “Selective DNA-PKcs inhibition extends the therapeutic index of localized radiotherapy and chemotherapy” (The Journal of Clinical Investigation, 2019)

Molecular target: T1, AKT2 (PKB beta) (Homo sapiens, UniProt P31751)
T1 construct: purchased Thermo Fisher Scientific (Life Technologies) SelectScreen
Test: SelectScreen Z'LYTE
Assay type: biochemical
Outline: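 SelectScreen broad panel; activity (Z'LYTE, Adapta) plus binding formats. ATP: Km app for CSF1R Z'LYTE; 10 for CAMK1 Adapta. Readout = % per kinase.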

T1 sequence (P31751 whole entry): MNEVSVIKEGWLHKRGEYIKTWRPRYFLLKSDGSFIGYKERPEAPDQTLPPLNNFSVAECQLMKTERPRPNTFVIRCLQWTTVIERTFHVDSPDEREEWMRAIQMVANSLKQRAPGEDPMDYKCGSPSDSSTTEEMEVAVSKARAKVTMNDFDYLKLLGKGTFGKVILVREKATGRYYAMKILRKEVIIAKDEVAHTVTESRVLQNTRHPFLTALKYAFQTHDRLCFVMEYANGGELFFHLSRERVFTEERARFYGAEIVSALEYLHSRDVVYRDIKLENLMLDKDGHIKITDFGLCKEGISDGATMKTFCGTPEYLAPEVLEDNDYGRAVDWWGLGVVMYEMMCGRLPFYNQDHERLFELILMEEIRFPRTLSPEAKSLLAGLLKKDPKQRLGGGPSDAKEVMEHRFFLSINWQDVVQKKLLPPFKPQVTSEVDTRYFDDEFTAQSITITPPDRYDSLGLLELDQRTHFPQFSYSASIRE

CN(C(=O)CN1CCOCC1)c1ccc2sc3c(-c4cccc5c(=O)cc(N6CC7CCC(C6)O7)oc45)cccc3c2c1 [NU5455]
inhibition at 1 µM: 0%
